# Source: patent US20260355199A1, “COMPOSITIONS AND METHODS FOR TREATING OR PREVENTING NONALCOHOLIC STEATOHEPATITIS (NASH), ANOREXIA, DEPRESSION, ENDOMETRIOSIS, AND OTHER DISEASES OR DISORDERS” (priority 2022, published 2026)
# “Also recorded” adds a separate entry of the source.
# Experiments:
# Agrp, Npy and Slc32a1 = Agrp, Npy and Slc32a1 mRNA in GT1-7 cells; assay type: cell-based, mouse; conditions: 10 μM, 48 h
# From the text: Mouse GT1-7 hypothalamic neuronal cell line (Sigma-Aldrich, SCC116) and human SH-SY5Y neuroblastoma cell line (Sigma Aldrich, 94030304) were purchased and cultured according to the manufacturers' instructions. Purified Ad-TET3 adenovirus (Ad-FLAG.h-TET3, ADV-225322, Vector Biolabs) expressing human TET3 from a CMV promoter and Ad-GFP control adenovirus (1060, Vector Biolabs) were purchased.
# For Bobcat339 treatment (FIG. 15A and FIG. 15B), GT1-7 cells grown in 24-well plates at 2×10^5 cells/well were incubated with vehicle or Bobcat339 at a final concentration of 10 μM for 6 h, followed by RNA and protein extractions. […] Protein and RNA were isolated 48 h later and analyzed.
# Total RNAs were extracted from neuronal cells or homogenized hypothalamic arcuate nucleus tissue samples using PureLink RNA Mini Kit (Ambion, 12183025). cDNA was synthesized using PrimeScript RT Reagent Kit in a 20 μl reaction containing 0.5-1 μg of total RNA. Real-time quantitative PCR was performed in a 15 μl reaction containing 0.5-1 μl of cDNA using SsoAdvanced Universal SYBR Green Supermix in a Bio-Rad iCycler. […]
# TET3 [1] = assay: TET3 protein in RAW 264.7 cells; assay type: cell-based, mouse; conditions: RAW 264.7, 10 μM, 24 h
# Procedure: For siRNA transfection in a 24-well plate scale of Raw 264.7 cells, 10 pmol of NT siRNA (AM4636, Ambion) or Tet3 siRNA (4390815/s101483, Ambion) was mixed with 100 μL of OPTI-MEM (Gibco, 31985-070) by gentle pipetting. In parallel, 3 μL of Lipofectamine RNAiMAX (Invitrogen, 13778-150) was mixed with 100 μL of OPTI-MEM by gentle pipetting. Following 5 min of incubation at RT, the two were combined and the resulting 200 μL of transfection solution was added to each well of cells. After 24 h of incubation at […] in a 5% humidified CO2 tissue culture incubator, 300 μL of growth media was added and incubation was continued until cell harvesting.
# (§1) Bobcat339 Treatment of Cultured Cells Bobcat339 powder (Sigma-Aldrich, SML2611) was freshly dissolved in DMSO at a concentration of 5 mM and filtered through a 0.22 micron. Cells grown at a density of 80-90% were incubated in growth media with vehicle (DMSO) or Bobcat339 at a final concentration of 10 μM for 24 h, followed by RNA and protein extraction.
# For TET3 expression restoration experiments, cells seeded in 24-well plates were infected with Ad-GFP or Ad-TET3 at 4000 gc/cell. Following 16 h of infection, vehicle or Bobcat339 were added at a final concentration of 10 μM. Protein and RNA were isolated 48 hours later and analyzed. […]
# TET3 [2] = assay: TET3 protein in THP-1 cells; assay type: cell-based, human; conditions: THP-1, 10 μM, 24 h
# Procedure: as §1
# Cells were homogenized in situ using a pipette tip in 2×SDS-sample buffer with 10% β-mercaptoethanol at RT followed by heating at 100 °C for 5 min with occasional vortexing. The samples were loaded onto a 4-15% gradient SDS gel (Bio-rad, 456-8086) (10 μL/well) and transferred to nitrocellulose membranes, followed by Western blot analysis. The antibodies used were anti-TET3 (diluted at 1:1000, GeneTex, GTX121453 for human; diluted at 1:1000, Active Motif, 61395 for mouse), anti-TET2 (diluted at 1:1000, Proteintech, 21207-1-AP for human/mouse), anti-TGF-β1 (diluted at 1:1000, Abcam, ab215715 for human), anti-Lin28A (diluted at 1:1000, Cell Signaling, 3978S), and HRP-conjugated anti-GAPDH (dilution 1:5000; Proteintech, HRP-60004). The secondary antibody was HRP-linked Anti-rabbit IgG (dilution 1:10,000; Rockland, 611-1322).
structure (smiles),measurement,setting,value
"Nc1nc(=O)n(-c2cccc(-c3ccccc3)c2)cc1Cl [Bobcat339, 4-Amino-1-[1,1′-biphenyl]-3-yl-5-chloro-2(1H)-pyrimidinone]","Agrp, Npy and Slc32a1 mRNA levels","Agrp, Npy and Slc32a1; with TET3-expressing adenovirus (Ad-TET3)",not seen when the level of TET3 protein was restored; also recorded: not seen when TET3 was overexpressed
same,"Agrp, Npy and Slc32a1 mRNA levels","Agrp, Npy and Slc32a1; without exogenous TET3","increased in the mRNA levels of both Agrp and Npy; also recorded: increases in the mRNA levels of Agrp, Npy and Slc32a1; also recorded: significant increases in the Agrp/Nyp mRNAs"
same,TET3 protein level,TET3 [1],decreased the levels of TET3 protein; also recorded: decreased the level of TET3; also recorded: a decrease in TET3 at the protein level
same,TET3 protein level,TET3 [2],a decrease in TET3 at the protein level
